According to US20090076021A1, “THERAPEUTIC COMBINATIONS AND METHODS FOR CARDIOVASCULAR IMPROVEMENT AND TREATING CARDIOVASCULAR DISEASE” (priority 2006, published 2009):

Test system: Hypothyroid rats
Assay: Cardiac performance (Millar direct catheter system) in PTU-fed hypothyroid rats after 4 days of treatment
Assay type: in vivo, Male S.D. rats
Procedure: Male S.D. rats (7 wks old) were rendered hypothyroid by being fed PTU diet (n 48; iodine deficient, 0.15% propylthiouracil) or normal chow (n=8) for 2 weeks. PTU fed rats were then separated into weight-matched groups the day prior to inception of the study, and treated for 4 days with vehicle (0.05 mL/100 g BW i.p.; 20% Cremophor EL; 20% ethanol; 60% H2O) or T3 (3 μg/kg) and scriptaid (1.5, 15 mg/kg) or its vehicle (100% DMSO; 0.04 mL/100 g BW i.p.). Because of differential pharmacodynamics of T3 and scriptaid, each animal received T3 or its vehicle at least 3 hours prior to receiving scriptaid or its vehicle. Following 4 days of treatment, core temperature, systemic hemodynamics, and cardiac performance data were collected under isoflurane anesthesia using the Millar direct catheter system no less two hours following scriptaid administration. At the conclusion of the experiment the animals were sacrificed, and blood and tissues collected for morphological and biochemical analysis. Hypothyroid rats have impaired systolic and diastolic cardiac performance relative to euthyroid control rats, while scriptaid alone exerted no effects on either systolic or diastolic cardiac performance.

[1] = scriptaid (1.5, 15 mg/kg i.p.) coadministered with T3 (3 μg/kg), hypothyroid rats, compared with T3 alone

Row | Compound | maximal +/−dP/dt [1] | tau [1] | systolic or diastolic cardiac performance (scriptaid alone (1.5, 15 mg/kg i.p.), hypothyroid (PTU diet) rats, isoflurane anesthesia) | maximal positive and negative dP/dt (indices of systolic and diastolic performance) (T3 3 μg/kg, hypothyroid (PTU diet) rats, FIG. 1) | tau (an index of myocardial relaxation) (T3 3 μg/kg, hypothyroid (PTU diet) rats, FIG. 2)
1 | O=C(CCCCCN1C(=O)c2cccc3cccc(c23)C1=O)NO [scriptaid, 6-(1,3-Dioxo-1H,3H-benzo[de]isoquinolin-2-yl)-hexanoic acid hydroxyamide] | significantly enhanced the effects of T3 treatment | significantly enhanced the effects of T3 treatment | no effects | – | –
2 | N[C@@H](Cc1cc(I)c(Oc2ccc(O)c(I)c2)c(I)c1)C(=O)O [T3, triiodothyronine] | – | – | – | increased | improved
